Source: the OligoGym collection
Values joined by “and” are separate entries in the source; they are usually repeats but may differ in a detail not shown here. Equal entries are not always repeated. HELM strings list units from the 5' end as sugar, base in round brackets, then linkage (d deoxyribose, r ribose, m 2'-O-methyl, p phosphodiester). Methylation of C is not given here. [moe] = 2'-O-(2-methoxyethyl) (MOE); [cEt] = constrained ethyl (cEt); [sp] = phosphorothioate linkage

Target: HBV
Settings: ASO

Substance | target mRNA inhibition (HepG2, 0.07 µM) | further results
RNA1{[moe](C)[sp].[moe](T)[sp].d(G)[sp].d(G)[sp].d(A)[sp].d(G)[sp].d(C)[sp].d(C)[sp].d(A)[sp].d(C)[sp].d(C)[sp].[moe](A)[sp].[moe](G)[sp].[moe](C)[sp].[moe](A)[sp].[moe](G)[sp].[moe](G)}$$$$V2.0 | 66% and 64% | –
RNA1{[moe](G)[sp].[cEt](G)[sp].[cEt](T)[sp].d(G)[sp].d(A)[sp].d(A)[sp].d(G)[sp].d(C)[sp].d(G)[sp].d(A)[sp].d(A)[sp].d(G)[sp].d(T)[sp].[cEt](G)[sp].[cEt](C)[sp].[moe](A)}$$$$V2.0 | 79% and 75% | –
RNA1{[moe](G)[sp].[moe](C)[sp].[moe](A)[sp].d(G)[sp].d(A)[sp].d(G)[sp].d(G)[sp].d(T)[sp].d(G)[sp].d(A)[sp].d(A)[sp].d(G)[sp].[moe](C)[sp].[moe](G)[sp].[moe](A)[sp].[moe](A)[sp].[moe](G)}$$$$V2.0 | 75% and 66% | –
RNA1{[moe](T)[sp].[moe](G)[sp].[moe](A)[sp].[moe](A)[sp].[moe](G)[sp].d(C)[sp].d(G)[sp].d(A)[sp].d(A)[sp].d(G)[sp].d(T)[sp].d(G)[sp].d(C)[sp].d(A)[sp].[moe](C)[sp].[moe](A)[sp].[moe](C)}$$$$V2.0 | 13% and 38% | –
RNA1{[moe](C)[sp].[moe](A)[sp].[moe](C)[sp].[moe](T)[sp].d(A)[sp].d(G)[sp].d(T)[sp].d(A)[sp].d(A)[sp].d(A)[sp].d(C)[sp].d(T)[sp].d(G)[sp].[moe](A)[sp].[moe](G)[sp].[moe](C)[sp].[moe](C)}$$$$V2.0 | 61% and 54% | –
RNA1{[moe](T)[sp].[moe](G)[sp].d(G)[sp].d(A)[sp].d(G)[sp].d(C)[sp].d(C)[sp].d(A)[sp].d(C)[sp].d(C)[sp].d(A)[sp].[moe](G)[sp].[moe](C)[sp].[moe](A)[sp].[moe](G)[sp].[moe](G)}$$$$V2.0 | 29% and 41% | –
RNA1{[moe](T)[sp].[cEt](G)[sp].[cEt](A)[sp].d(A)[sp].d(C)[sp].d(A)[sp].d(A)[sp].d(A)[sp].d(T)[sp].d(G)[sp].d(G)[sp].d(C)[sp].d(A)[sp].[cEt](C)[sp].[cEt](T)[sp].[moe](A)}$$$$V2.0 | 71% and 59% | –
RNA1{[moe](G)[sp].[moe](C)[sp].[moe](A)[sp].d(C)[sp].d(T)[sp].d(A)[sp].d(G)[sp].d(T)[sp].d(A)[sp].d(A)[sp].d(A)[sp].d(C)[sp].[moe](T)[sp].[moe](G)[sp].[moe](A)[sp].[moe](G)[sp].[moe](C)}$$$$V2.0 | 74% and 68% | –
RNA1{[moe](T)[sp].[cEt](G)[sp].d(C)[sp].d(A)[sp].d(G)[sp].d(A)[sp].d(G)[sp].d(G)[sp].d(T)[sp].d(G)[sp].d(A)[sp].d(A)[sp].[cEt](G)[sp].[moe](C)[sp].[cEt](G)[sp].[moe](A)}$$$$V2.0 | 77% and 86% | target mRNA inhibition (HepG2, 0.0092593 µM): 5%; target mRNA inhibition (HepG2, 0.0277778 µM): 39%; target mRNA inhibition (HepG2, 0.0833333 µM): 70%; target mRNA inhibition (HepG2, 0.25 µM): 85%
RNA1{[moe](G)[sp].[moe](C)[sp].[moe](A)[sp].[moe](T)[sp].d(A)[sp].d(G)[sp].d(C)[sp].d(A)[sp].d(G)[sp].d(C)[sp].d(A)[sp].d(G)[sp].d(G)[sp].[moe](A)[sp].[moe](T)[sp].[moe](G)}$$$$V2.0 | 44% and 56% | –
RNA1{[moe](A)[sp].[moe](G)[sp].[moe](C)[sp].[moe](G)[sp].[moe](A)[sp].d(A)[sp].d(G)[sp].d(T)[sp].d(G)[sp].d(C)[sp].d(A)[sp].d(C)[sp].d(A)[sp].d(C)[sp].[moe](G)[sp].[moe](G)}$$$$V2.0 | 79% and 74% | –
RNA1{[moe](A)[sp].[moe](A)[sp].[moe](C)[sp].d(C)[sp].d(A)[sp].d(C)[sp].d(T)[sp].d(G)[sp].d(A)[sp].d(A)[sp].d(C)[sp].d(A)[sp].[moe](A)[sp].[moe](A)[sp].[moe](T)[sp].[moe](G)[sp].[moe](G)}$$$$V2.0 | 57% and 51% | –
RNA1{[moe](A)[sp].[moe](C)[sp].[moe](G)[sp].[moe](G)[sp].d(G)[sp].d(C)[sp].d(A)[sp].d(A)[sp].d(C)[sp].d(A)[sp].d(T)[sp].d(A)[sp].d(C)[sp].[moe](C)[sp].[moe](T)[sp].[moe](T)}$$$$V2.0 | 50% and 54% | –
RNA1{[moe](A)[sp].[moe](T)[sp].[moe](T)[sp].[moe](T)[sp].[moe](A)[sp].[moe](T)[sp].d(G)[sp].d(C)[sp].d(C)[sp].d(T)[sp].d(A)[sp].d(C)[sp].d(A)[sp].d(G)[sp].d(C)[sp].[moe](C)[sp].[moe](T)}$$$$V2.0 | 74% and 57% | target mRNA inhibition (HepG2, 0.0092593 µM): 0%; target mRNA inhibition (HepG2, 0.0277778 µM): 12%; target mRNA inhibition (HepG2, 0.0833333 µM): 24%; target mRNA inhibition (HepG2, 0.25 µM): 46%
RNA1{[moe](A)[sp].[moe](C)[sp].[moe](T)[sp].[moe](A)[sp].[moe](G)[sp].d(T)[sp].d(A)[sp].d(A)[sp].d(A)[sp].d(C)[sp].d(T)[sp].d(G)[sp].d(A)[sp].d(G)[sp].[moe](C)[sp].[moe](C)}$$$$V2.0 | 64% and 66% | –
RNA1{[moe](A)[sp].[moe](C)[sp].[moe](C)[sp].[moe](A)[sp].[moe](C)[sp].d(T)[sp].d(G)[sp].d(A)[sp].d(A)[sp].d(C)[sp].d(A)[sp].d(A)[sp].d(A)[sp].d(T)[sp].[moe](G)[sp].[moe](G)[sp].[moe](C)}$$$$V2.0 | 59% and 61% | –
RNA1{[moe](T)[sp].[moe](T)[sp].[moe](C)[sp].d(C)[sp].d(G)[sp].d(C)[sp].d(A)[sp].d(G)[sp].d(T)[sp].d(A)[sp].d(T)[sp].d(G)[sp].d(G)[sp].[cEt](A)[sp].[cEt](T)[sp].[cEt](C)}$$$$V2.0 | 60% and 68% | –
RNA1{[moe](A)[sp].[moe](A)[sp].[moe](T)[sp].d(T)[sp].d(T)[sp].d(A)[sp].d(T)[sp].d(G)[sp].d(C)[sp].d(C)[sp].d(T)[sp].d(A)[sp].[moe](C)[sp].[moe](A)[sp].[moe](G)[sp].[moe](C)}$$$$V2.0 | 52% and 49% | –
RNA1{[moe](T)[sp].[moe](G)[sp].[moe](A)[sp].d(G)[sp].d(G)[sp].d(C)[sp].d(A)[sp].d(T)[sp].d(A)[sp].d(G)[sp].d(C)[sp].d(A)[sp].[moe](G)[sp].[moe](C)[sp].[moe](A)[sp].[moe](G)}$$$$V2.0 | 60% and 49% | –
RNA1{[moe](T)[sp].[moe](T)[sp].d(A)[sp].d(T)[sp].d(G)[sp].d(C)[sp].d(C)[sp].d(T)[sp].d(A)[sp].d(C)[sp].d(A)[sp].[moe](G)[sp].[moe](C)[sp].[moe](C)[sp].[moe](T)[sp].[moe](C)[sp].[moe](C)}$$$$V2.0 | 56% and 57% | –
RNA1{[moe](T)[sp].[moe](G)[sp].[moe](A)[sp].[moe](G)[sp].[moe](G)[sp].d(C)[sp].d(A)[sp].d(T)[sp].d(A)[sp].d(G)[sp].d(C)[sp].d(A)[sp].d(G)[sp].d(C)[sp].[moe](A)[sp].[moe](G)[sp].[moe](G)}$$$$V2.0 | 45% and 44% | –
RNA1{[moe](G)[sp].[moe](A)[sp].[moe](T)[sp].d(G)[sp].d(A)[sp].d(G)[sp].d(G)[sp].d(C)[sp].d(A)[sp].d(T)[sp].d(A)[sp].d(G)[sp].[moe](C)[sp].[moe](A)[sp].[moe](G)[sp].[moe](C)}$$$$V2.0 | 39% and 38% | –
RNA1{[moe](T)[sp].[moe](T)[sp].[moe](A)[sp].d(T)[sp].d(G)[sp].d(C)[sp].d(C)[sp].d(T)[sp].d(A)[sp].d(C)[sp].d(A)[sp].d(G)[sp].d(C)[sp].[cEt](C)[sp].[cEt](T)[sp].[cEt](C)}$$$$V2.0 | 37% and 53% | –
